Source: patent US11661583B2, “Drug discovery platform for Duchenne cardiomyopathy” (University of Washington, priority 2015, dated 2023)
Structures can show the parent of a compound that is named as a salt. Where two headings read alike, the source gives them in different places.

Tests used:
[1] = test system: dystrophin deficient cardiomyocytes; test: High-throughput hypotonic stress cell viability (intracellular ATP) screen; conditions: for Average of % viability: 384-well, 18 hours compound incubation, then 30 minutes at 12.5% normal osmolarity, CELLTITER-GLO, vs average of DMSO control wells, tested at 10^-8 to 10^-5 M, concentration not given; for Z score / Effect on viability in hypotonic stress screen (in words): primary screen; for Z score: data points ranked by Z score; for Effect on viability in hypotonic stress screen (in words): dose-response, FIG. 8
[2] = test system: dystrophin deficient cardiomyocytes
dystrophin locus = test: SURVEYOR assay of guide RNA targeting efficiency in HEK293T cells; assay type: cell-based, human; conditions: FIG. 9A
From the text: (THERMO […], Waltham, Mass.) using primer set […] ID NO:3) and […] ID NO:4).

Compound: C=CC1=C(C(=O)O)N2C(=O)[C@@H](NC(=O)/C(=N\O)c3csc(N)n3)[C@H]2SC1
- Average of % viability [1]: 185.70 ± 45.76%
- Z score [1]: 4.16

Compound: CC(=O)c1ccc2c(c1)N(CCCN(C)C)c1ccccc1S2 [ACEPROMAZINE MALEATE]
- Average of % viability [1]: 239.1 ± 38.37%
- Z score [1]: 6.57

Compound: Nc1nc2c(ncn2COCCO)c(=O)[nH]1 [ACYCLOVIR]
- Average of % viability [1]: 258.33 ± 14.16%
- Z score [1]: 7.44

Compound: NC(=O)c1ccc([N+](=O)[O-])cc1Cl [AKLOMIDE]
- Average of % viability [1]: 276.60 ± 12.37%
- Z score [1]: 8.26

Compound: CN(C)c1nc(N(C)C)nc(N(C)C)n1 [ALTRETAMINE]
- Average of % viability [1]: 188.22 ± 2.87%
- Z score [1]: 4.27

Compound: Nc1ccc(C(=O)NCC(=O)O)cc1 [AMINOHIPPURIC ACID]
- Average of % viability [1]: 207.49 ± 7.09%
- Z score [1]: 5.14

Compound: CCCCc1oc2ccccc2c1C(=O)c1cc(I)c(OCCN(CC)CC)c(I)c1 [AMIODARONE HYDROCHLORIDE]
- Z score [1]: 3.37

Compound: O=C1O[C@H]([C@@H](O)CO)C(O)=C1O [ASCORBIC ACID]
- Average of % viability [1]: 181.48 ± 23.68%

Compound: CC(C)NCC(O)COc1ccc(CC(N)=O)cc1 (centres unmarked) [ATENOLOL]
- Z score [1]: 3.51

Compound: CC(C)COCC(CN(Cc1ccccc1)c1ccccc1)N1CCCC1 (centres unmarked) [BEPRIDIL HYDROCHLORIDE]
- Average of % viability [1]: 178.65 ± 3.48%
- Z score [1]: 3.84

Compound: O=C(O)CCCC[C@@H]1SC[C@@H]2NC(=O)N[C@@H]21 [BIOTIN]
- Average of % viability [1]: 315.95 ± 51.89%
- Z score [1]: 10.04

Compound: C[C@@]12C(=O)OC(=O)[C@]1(C)[C@H]1CC[C@@H]2O1 [CANTHARIDIN]
- Average of % viability [1]: 239.59 ± 14.65%
- Z score [1]: 6.59

Compound: CN1CCN(C(c2ccccc2)c2ccc(Cl)cc2)CC1 (centres unmarked) [CHLORCYCLIZINE HYDROCHLORIDE]
- Average of % viability [1]: 238.84 ± 35.23%
- Z score [1]: 6.56

Compound: O=C(O)c1cc(-c2ccccc2)nc2ccccc12 [CINCHOPHEN]
- Average of % viability [1]: 168.44 ± 44.63%
- Z score [1]: 3.38

Compound: COC(=O)[C@H](c1ccccc1Cl)N1CCc2sccc2C1 [CLOPIDOGREL SULFATE]
- Average of % viability [1]: 194.84 ± 50.3%
- Z score [1]: 4.57

Compound: CC(=O)OCC(=O)[C@@]1(O)CC[C@H]2[C@@H]3CCC4=CC(=O)CC[C@]4(C)[C@H]3C(=O)C[C@@]21C [CORTISONE ACETATE]
- Average of % viability [1]: 205.92 ± 12.32%
- Z score [1]: 5.07

Compound: CN1C(=O)CC[C@H]1c1cccnc1 [COTININE]
- Average of % viability [1]: 188.79 ± 56.0%
- Z score [1]: 4.30

Compound: CC=CC(=O)N(CC)c1ccccc1C [CROTAMITON]
- Average of % viability [1]: 178.25 ± 27.22%
- Z score [1]: 3.82

Compound: Cn1c(=O)c2c(ncn2C)n(C)c1=O [Caffeine]
- Effect on viability in hypotonic stress screen (in words) [1]: demonstrated the opposite effect

Compound: CN(C)/N=N/c1[nH]cnc1C(N)=O [DACARBAZINE]
- Average of % viability [1]: 177.63 ± 45.35%
- Z score [1]: 3.79

Compound: COc1cccc2c1C(=O)c1c(O)c3c(c(O)c1C2=O)C[C@@](O)(C(=O)CO)C[C@@H]3O[C@H]1C[C@H](N)[C@H](O)[C@H](C)O1 [DOXORUBICIN]
- Average of % viability [1]: 207.98 ± 34.29%
- Z score [1]: 5.16

Compound: C[C@]12CC[C@@H]3c4ccc(OS(=O)(=O)O)cc4CC[C@H]3[C@@H]1CCC2=O [ESTROPIPATE]
- Average of % viability [1]: 208.65 ± 30.77%
- Z score [1]: 5.19

Compound: CC(=O)O[C@H]1CC[C@@]2(C)[C@H](CC[C@@H]3[C@@H]2CC[C@]2(C)[C@@H](C4=CC(=O)OC4)[C@@H](OC(C)=O)C[C@]32O)C1 [GITOXIGENIN DIACETATE]
- Average of % viability [1]: 177.20 ± 1.17%
- Z score [1]: 3.77

Compound: O=C(CCCN1CCC(O)(c2ccc(Cl)cc2)CC1)c1ccc(F)cc1 [HALOPERIDOL]
- Average of % viability [1]: 197.30 ± 19.03%
- Z score [1]: 4.68

Compound: NC(=O)NO [HYDROXYUREA]
- Average of % viability [1]: 187.65 ± 49.61%
- Z score [1]: 4.25

Compound: CN1CCc2c(c3ccccc3n2Cc2ccccc2)C1.CN1CCc2c(c3ccccc3n2Cc2ccccc2)C1.O=S(=O)(O)c1cccc2c(S(=O)(=O)O)cccc12 [MEBHYDROLIN NAPHTHALENE SULFONATE]
- Z score [1]: 3.58

Compound: COc1ccc2cc([C@H](C)CO)ccc2c1 [NAPROXOL]
- Average of % viability [1]: 168.76 ± 2.61%
- Z score [1]: 3.39

Compound: O=C(O)C(O)C(O)C(=O)O.OCc1cccnc1 (centres unmarked) [NICOTINYL ALCOHOL TARTRATE]
- Average of % viability [1]: 262.12 ± 57.89%
- Z score [1]: 7.61

Compound: COCCOC(=O)C1=C(C)NC(C)=C(C(=O)OC(C)C)C1c1cccc([N+](=O)[O-])c1 (centres unmarked) [NIMODIPINE]
- Average of % viability [1]: 292.38 ± 56.17%
- Z score [1]: 8.97

Compound: CCOC(=O)C1=C(C)NC(C)=C(C(=O)OC)C1c1cccc([N+](=O)[O-])c1 (centres unmarked) [NITRENDIPINE]
- Average of % viability [1]: 275.48 ± 52.16%
- Z score [1]: 8.21

Compound: CCCCC1C(=O)N(c2ccccc2)N(c2ccc(O)cc2)C1=O (centres unmarked) [OXYPHENBUTAZONE]
- Average of % viability [2]: 176.96 ± 42.53%
- Z score [1]: 3.76

Compound: COc1cc([C@@H]2c3cc4c(cc3[C@H](O)[C@H]3COC(=O)[C@H]23)OCO4)cc(OC)c1OC [PODOFILOX]
- Average of % viability [1]: 168.46 ± 28.98%
- Z score [1]: 3.38

Compound: CCCN(CCC)C(=O)C(CCC(=O)O)NC(=O)c1ccccc1 (centres unmarked) [PROGLUMIDE]
- Average of % viability [1]: 175.69 ± 50.35%
- Z score [1]: 3.71

Compound: COc1ccc(C[C@H](N)C(=O)N[C@H]2[C@@H](O)[C@H](n3cnc4c(N(C)C)ncnc43)O[C@@H]2CO)cc1 [PUROMYCIN HYDROCHLORIDE]
- Average of % viability [1]: 187.84 ± 39.68%
- Z score [1]: 4.25

Compound: CCCCCCCCCCCCCCCC(=O)OC/C=C(C)/C=C/C=C(C)/C=C/C1=C(C)CCCC1(C)C [RETINYL PALMITATE]
- Average of % viability [1]: 236.79 ± 46.63%
- Z score [1]: 6.46

Compound: CO[C@H]1C[C@H](O[C@@H]2/C(C)=C/C[C@@H]3C[C@@H](C[C@]4(CC[C@H](C)[C@@H](C5CCCCC5)O4)O3)OC(=O)[C@@H]3C=C(C)/C(=N/O)[C@H]4OC/C(=C\C=C\[C@@H]2C)[C@]43O)O[C@@H](C)[C@@H]1O [SELAMECTIN]
- Average of % viability [1]: 172.91 ± 25.29%
- Z score [1]: 3.58

Compound: COc1ncnc(NS(=O)(=O)c2ccc(N)cc2)c1OC [SULFADOXINE]
- Average of % viability [1]: 195.32 ± 23.52%
- Z score [1]: 4.59

Compound: CC(C)(C)c1ccc(C(O)CCCN2CCC(C(O)(c3ccccc3)c3ccccc3)CC2)cc1 (centres unmarked) [TERFENADINE]
- Average of % viability [1]: 211.28 ± 22.46%
- Z score [1]: 5.31

Compound: CCN(CC)CCOc1ccc2c(c1)C(=O)c1cc(OCCN(CC)CC)ccc1-2 [TILORONE]
- Average of % viability [1]: 172.53 ± 15.79%
- Z score [1]: 3.56

Compound: C[C@@H]1CC[C@@]2(OC1)O[C@H]1[C@@H](O)[C@H]3[C@@H]4CC[C@H]5C[C@@H](O[C@@H]6O[C@H](CO)[C@H](O[C@@H]7O[C@H](CO)[C@@H](O)[C@H](O[C@@H]8OC[C@@H](O)[C@H](O)[C@H]8O)[C@H]7O[C@@H]7O[C@H](CO)[C@H](O)[C@H](O[C@@H]8O[C@H](CO)[C@@H](O)[C@H](O)[C@H]8O)[C@H]7O)[C@H](O)[C@H]6O)[C@H](O)C[C@]5(C)[C@H]4CC[C@]3(C)[C@H]1[C@@H]2C [digitonin]
- Z score [1]: lowest Z score
- Effect on viability in hypotonic stress screen (in words) [1]: dose-responsive toxicity

Compound: ANTIMYCIN A
- Average of % viability [1]: 180.04 ± 1.89%
- Z score [1]: 3.90

Compound: BENZALKONIUM CHLORIDE
- Average of % viability [1]: 194.64 ± 23.10%
- Z score [1]: 4.56

Compound: gRNA 4: guide sequence GCTTTGGTGGGAAGAAGTAGAGG (SEQ ID NO: 8) targeting first muscle exon of human dystrophin (listed as DNA, chemistry not fully specified)
- cutting efficiency (dystrophin locus): 44.3%
